From ChEMBL document CHEMBL1629679, “Extended-spectrum cephalosporinases in Pseudomonas aeruginosa” (2009)

Tests used:
[1] = system: Pseudomonas aeruginosa; assay: Activity at Pseudomonas aeruginosa PDC-2 by spectrophotometer
[2] = system: Pseudomonas aeruginosa; assay: Activity at Pseudomonas aeruginosa PDC-3 by spectrophotometer
[3] = system: Pseudomonas aeruginosa; assay: Ratio of Kcat to Km for Pseudomonas aeruginosa PDC-2 by spectrophotometer
[4] = system: Pseudomonas aeruginosa; assay: Ratio of Kcat to Km for Pseudomonas aeruginosa PDC-3 by spectrophotometer

| SMILES | Km [1] [µM] | kcat [1] [s⁻¹] | Km [2] [µM] | kcat [2] [s⁻¹] | kcat/Km [3] [M⁻¹ s⁻¹] | kcat/Km [4] [M⁻¹ s⁻¹] |
| --- | --- | --- | --- | --- | --- | --- |
| CO/N=C(\C(=O)N[C@@H]1C(=O)N2C(C(=O)[O-])=C(C[N+]3(C)CCCC3)CS[C@H]12)c1csc(N)n1 | 850 | 2 | 1300 | 2 | 2000 | 1500 |
| CC1(C)S[C@@H]2[C@H](NC(=O)Cc3ccccc3)C(=O)N2[C@H]1C(=O)O | 30 | 35 | 30 | 35 | 1.2e+06 | 1.2e+06 |
| CO/N=C(\C(=O)N[C@@H]1C(=O)N2C(C(=O)O)=C(COC(C)=O)CS[C@H]12)c1csc(N)n1 | 5 | 5 | 8 | 0.15 | 30000 | 20000 |
| CC(C)(O/N=C(\C(=O)N[C@@H]1C(=O)N2C(C(=O)[O-])=C(C[n+]3ccccc3)CS[C@H]12)c1csc(N)n1)C(=O)O | 20 | 0.01 | 35 | 0.02 | 500 | 600 |
| C[C@@H](O)[C@H]1C(=O)N2C(C(=O)O)=C(SCCNC=N)C[C@H]12 | 35 | 0.2 | 20 | 0.1 | 5000 | 5000 |
| CCN1CCN(C(=O)N[C@@H](C(=O)N[C@@H]2C(=O)N3[C@@H]2SC(C)(C)[C@@H]3C(=O)O)c2ccccc2)C(=O)C1=O | 40 | 5.5 | 40 | 5 | 135000 | 125000 |
